Entries after “also recorded” stand apart in the source; their conditions may differ.
Columns and labels:
[1] = Photophysical property of the fluorophore ASM; type: physicochemical
Source text: Design, preparation, and characterization of the NIR-ASM fluorescent probe. Imaging agents emitting near-infrared fluorescence enable deeper penetration with low phototoxicity and high signal-to-background ratios due to minimal tissue auto-fluorescence, which is a prime requirement for in vivo imaging studies.^40,41 Accordingly, the inventors designed an NQO1 activatable near-infrared fluorescent probe (NIR-ASM) by attaching a trimethyl-lock QPA with (E)-2-(3-(4-aminostyryl)-5,5-dimethylcyclohex-2-en-1-ylidene)malononitrile (ASM) for molecular imaging of cancer cells in vivo (FIG. 9A). The fluorophore ASM was used in this study because of its strong NIR fluorescence signal with substantial Stokes shift (˜190 nm), to eliminate background interferences by avoiding reabsorption of emitted photons. […] NQO1 is a ubiquitous cytosolic two-electron reductase that catalyzes the reduction of quinone substrates in the presence of NADH. Upon interaction with NQO1 in the presence of NADH, QPA present in non-fluorescent NIR-ASM undergoes two-electron reduction to form an o-hydroxydihydrocinnamic acid derivative that undergoes rapid lactonization under physiological conditions to yield dihydrocoumarin, 6-hydroxy-4,4,5,7,8-pentamethylchroman-2-one (HPC) along with highly fluorescent ASM. […]

[2] = test system: hNQO1 in T98G cells; assay: ES936 pretreatment of cells before NQ-DCP, fluorescence microscopy; type: cell-based, human; details: 100 nM ES936 for 6 h, then 10 μM NQ-DCP
Procedure: Evaluation of Specificity in Cancer Cells. To show the substrate selectivity of NQ-DCP for hNQO1, T98G cells were pretreated with 100 nM of NQO1 inhibitor ES936 for 6 h and incubated 10 μM of NQ-DCP.
Cell Culture, Fluorescence Imaging, and Flow Cytometry Analysis. Brain tumor cells and astrocytes were grown in Dulbecco's modified Eagle's (DMEM) medium containing 10% Fetal Bovine Serum and 1% penicillin/streptomycin in a humidified atmosphere of 5% CO2 at 37° C. For fluorescence imaging, initially, cells were seeded into 6-well plate and cultured overnight in respective media at 37° C. Media was replaced with fresh medium containing 10 μM NQ-DCP and incubated at 37° C. for 60 min and then the medium was replaced with PBS and live cells were imaged using a fluorescence microscope. For inhibitor study, cells were pretreated with NQO1 inhibitor ES936 (100 nM) for 6 h before adding the NQ-DCP. For determining endogenous hNQO1 activity in cancer cells using flow cytometry, about 10×10^4 cells were incubated with 10 μM of NQ-DCP for 60 min and were analyzed using flow cytometry.

[3] = biological target: T1, NQO1 (Homo sapiens, UniProt P15559); assay: Inhibitory effect of ES936 on hNQO1 activation of NQ-DCP; type: biochemical; details: ES936 0-100 nM, enzyme pre-treated, 30 min
T1 sequence (P15559 whole entry): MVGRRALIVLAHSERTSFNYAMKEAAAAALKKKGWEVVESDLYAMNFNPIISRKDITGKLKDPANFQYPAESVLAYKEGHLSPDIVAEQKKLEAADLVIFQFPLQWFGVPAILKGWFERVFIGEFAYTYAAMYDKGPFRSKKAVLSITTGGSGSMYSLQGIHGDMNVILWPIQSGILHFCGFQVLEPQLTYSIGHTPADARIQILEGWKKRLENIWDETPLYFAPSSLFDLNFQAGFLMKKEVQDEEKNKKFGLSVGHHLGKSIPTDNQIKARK
Procedure: Selectivity of NQ-DCP Towards hNQO1. The specificity of NQ-DCP probe towards hNQO1 was studied by determining its reactivity towards various biomolecules such as the glutathione (GSH, 1 mM), aldehyde dehydrogenase 1 (ALDH1A1, 2.5 μg/mL), gamma-glutamyl transferase (GGT, 10 U), glutathione Peroxidase (GPx, 10 U), apurinic/apyrimidinic endonuclease (APE1, 10 U), cystathionine-β-synthase (CBS, 2 μg/mL), cathepsin L (CTSL, 2 μg/mL), glutathione S-transferase (GST-pi, 2 μg/mL), nitroreductase (NTR, 2 μg/mL) and NADH (100 μM) alone or the combination of and NQO1 (2.5 μg/mL). […] To gain more insight into the specificity of the probe towards hNQO1, the enzyme was pre-treated with ES936 (0-100 nM), a well-known hNQO1 inhibitor [39] and then incubated with NQ-DCP.
Evaluation of Inhibitor Efficiency. To evaluate the inhibitory efficiency of ES936 towards hNQO1 under in vitro conditions, different concentrations of ES936 (0-100 nM) incubated with 2.0 μg/mL of NQO1, 100 μM NADPH in PBS with 0.1% BSA (pH 7.4) at 37° C. Fluorescence emission was recorded after 30 min of incubation (λex=420 nm).

[4] = biological target: T1, NQO1; assay: Effect of NQO1 inhibitor ES936 on NQO1 activation of NIR-ASM; type: biochemical; set-up: purchased Sigma-Aldrich D1515; details: ES936 0-100 nM, NQO1 pretreated
Procedure: Selectivity of NIR-ASM. The selectivity of NIR-ASM probe was studied by examining its reactivity towards various biomolecules and antioxidant enzymes such as the glutathione, aldehyde dehydrogenase 1, gamma-glutamyl transferase, glutathione peroxidase, apurinic/apyrimidinic endonuclease, cystathionine-β-synthase, cathepsin L, glutathione S-transferase, NADH alone and the combination of nitroreductase and NQO1.
NQO1 inhibitor efficiency evaluation. NQO1 inhibitor efficiency was evaluated using specific NQO1 inhibitor ES936 under in vitro conditions. 2.5 μg/mL of NQO1 was incubated with different concentrations of ES936 (0-100 nM) in the presence of 100 μM NADH at 37° C. Fluorescence emission was recorded after 30 min of incubation (λex. 460 nm).

[5] = test system: NQO1 in A549 and H460 cells; assay: ES936 pretreatment of cells before NIR-ASM (microscopy and flow cytometry); type: cell-based, human
Procedure: Chemical and genetic approaches confirm the specificity of NIR-ASM for NQO1 in live tumor cells. A fluorescence probe with high sensitivity, simple operation, and excellent specificity will be an asset for the detection of NQO1 in situ. To assess the substrate selectivity of NIR-ASM for NQO1, both A549 and H460 cells were pretreated with 100 nM of NQO1 inhibitor ES936 for 6 h, before incubating with 10 μM NIR-ASM. […] The effect of ES936 on endogenous NQO1 activity and subsequent reactivity with NIR-ASM was also determined by flow cytometry. […] The presence of NQO1 protein in the transfected MDA-MB-231 cells and its absence in the untransfected control was confirmed by immunoblotting (FIG. 13E). Subsequently, the NQO1-negative and positive MDA-MB-231 cell lines were incubated with NIR-ASM and analyzed by fluorescence microscopy and flow cytometry for activation of the probe.
Fluorescence imaging. Both cancer and normal cells were seeded into 6-well plates and cultured overnight in respective media at 37° C. […] Finally, the medium was replaced with PBS and the live cells were imaged using a multiphoton confocal fluorescence microscope (λex/em=488/644 nm). […]
Flow cytometry analysis. The endogenous NQO1 activity of cancer cells and normal cells was determined by flow cytometry after NIR-ASM exposure. […] About 1×10^4 cells were analyzed by flow cytometry (λex=488 nm).

Row | Stokes shift [1] [nm] | Compound | effect on NQ-DCP fluorescence in cells [2] | effect on the fluorescence response of NQ-DCP to hNQO1 [3] | effect on the fluorescence response of NIR-ASM to NQO1 [4] | effect on NIR-ASM fluorescence in cells (microscopy) ([5]; 100 nM ES936 for 6 h, then 10 μM NIR-ASM) | effect on NIR-ASM induced fluorescence intensity (flow cytometry) ([5]; 100 nM ES936 pretreated tumor cells)
1 | ~190 | CC1(C)CC(/C=C/c2ccc(N)cc2)=CC(=C(C#N)C#N)C1 [ASM, (E)-2-(3-(4-aminostyryl)-5,5-dimethylcyclohex-2-en-1-ylidene) malononitrile] |  |  |  |  | 
2 |  | COC1=CC(=O)c2c(c(COc3ccc([N+](=O)[O-])cc3)c(C)n2C)C1=O [ES936] | completely blocked the NQ-DCP fluorescence | effectively suppressed the fluorescence response in a concentration-dependent manner; also recorded: completely blocked the NQ-DCP fluorescence | effectively suppressed the fluorescence response in a concentration-dependent fashion | completely blocked the NIR-ASM fluorescence | significantly decreased
